According to the NIST ThermoML archive (doi:10.1016/j.jct.2016.02.013):
± gives the expanded uncertainty stated by the source.

Legend:
[1] = for surface tension liquid-gas: Pendant drop shape; for electrical conductivity / viscosity / mass density: 101.33 kPa; for surface tension liquid-gas / electrical conductivity / viscosity / mass density: Liquid; for electrical conductivity: Alternating current cell with electrodes; for viscosity: Concentric cylinders viscometry; for mass density: Vibrating tube method
[2] = refractive index (Na D-line) (dimensionless); settings: 101.33 kPa, Liquid, Standard Abbe refractometry

CCCC[N+](CCCC)(CCCC)CCCC.O=S(=O)([O-])C(F)(F)C(F)(F)C(F)(F)C(F)(F)F [tetrabutylammonium perfluorobutanesulfonate]
[1]
Settings | surface tension liquid-gas [mN/m]
333.1 K | 22.77 ± 0.35
338 K | 22.57 ± 0.35
343.1 K | 22.36 ± 0.35
348.3 K | 22.2 ± 0.34
353.4 K | 21.95 ± 0.34

CC[n+]1cccc(C)c1.O=C([O-])C(F)(F)C(F)(F)C(F)(F)C(F)(F)F [1-ethyl-3-methylpyridinium perfluoropentanoate]
Settings | electrical conductivity, [1] [S/m] | mass density, [1] [kg/m3] | refractive index, [2] | surface tension liquid-gas, [1] [mN/m] | viscosity, [1] [mPa·s]
293.15 K | 0.0915 ± 0.0015 | 1458.7 ± 1.6 | 1.42282 ± 0.00037 | – | 196 ± 5.2
298.15 K | 0.12 ± 0.002 | 1453.6 ± 1.6 | 1.42137 ± 0.00037 | – | 147.1 ± 3.6
298.3 K | – | – | – | 26.83 ± 0.32 | –
303.15 K | 0.155 ± 0.002 | 1448.6 ± 1.6 | 1.4199 ± 0.00037 | – | 110.8 ± 2.5
308.15 K | 0.194 ± 0.003 | 1443.6 ± 1.6 | 1.41844 ± 0.00037 | – | 85.39 ± 1.9
308.2 K | – | – | – | 26.49 ± 0.32 | –
313.15 K | 0.239 ± 0.003 | 1438.7 ± 1.5 | 1.41697 ± 0.00037 | – | 67.81 ± 1.4
317.9 K | – | – | – | 26.07 ± 0.31 | –
318.15 K | 0.289 ± 0.004 | 1433.7 ± 1.5 | 1.41553 ± 0.00037 | – | 53.67 ± 1.1
323.15 K | 0.355 ± 0.004 | 1428.9 ± 1.5 | 1.41406 ± 0.00037 | – | 43.6 ± 0.91
328 K | – | – | – | 25.71 ± 0.31 | –
328.15 K | – | 1424 ± 1.5 | 1.4126 ± 0.00037 | – | 35.94 ± 0.75
333.15 K | – | 1419.2 ± 1.5 | 1.41114 ± 0.00037 | – | 30.35 ± 0.63
338 K | – | – | – | 25.31 ± 0.31 | –
338.15 K | – | 1414.3 ± 1.5 | 1.40955 ± 0.00037 | – | 25.32 ± 0.53
343.15 K | – | 1409.4 ± 1.5 | 1.40811 ± 0.00037 | – | 21.61 ± 0.45
347 K | – | – | – | 24.94 ± 0.31 | –
348.15 K | – | 1404.5 ± 1.5 | 1.40672 ± 0.00037 | – | 18.61 ± 0.39
353.15 K | – | 1399.5 ± 1.5 | 1.40531 ± 0.00037 | – | 16.39 ± 0.34

Settings | Normal melting temperature [°C]
[1], Crystal, DTA | 2 ± 4

CC[n+]1cccc(C)c1.O=S(=O)([O-])C(F)(F)C(F)(F)C(F)(F)C(F)(F)F [1-ethyl-3-methylpyridinium perfluorobutanesulfonate]
[1]
Settings | surface tension liquid-gas [mN/m]
298.3 K | 26.35 ± 0.32
303.4 K | 26.16 ± 0.32
313.4 K | 25.77 ± 0.31
323.6 K | 25.39 ± 0.31
332.9 K | 25.12 ± 0.31
343 K | 24.7 ± 0.3

CCCC[N+](CCCC)(CCCC)CCCC.O=S(=O)([O-])C(F)(F)C(F)(F)C(F)(F)C(F)(F)C(F)(F)C(F)(F)C(F)(F)C(F)(F)F [tetrabutylammonium heptadecafluorooctanesulfonate]
[1]
Settings | surface tension liquid-gas [mN/m]
298.4 K | 21.98 ± 0.34
303.2 K | 21.6 ± 0.34
313.3 K | 21.11 ± 0.33
323.2 K | 20.65 ± 0.33
333.2 K | 20.14 ± 0.32
343 K | 19.55 ± 0.31
